For orientation: Kd means the concentration at which binding is half-saturated. The term IC50 denotes the point on the concentration scale where inhibition reaches its midpoint. One may read the EC50 as the concentration giving half of the maximal effect. Low values mean an effect from little substance, high ones a need for much substance. What is called half-life is the time in which the quantity being followed falls by half. What is called logP is the decadic logarithm of the partition coefficient of the neutral form, usually between octanol and water. High values mean a more lipophilic compound, low ones a more hydrophilic compound.

The text below walks through data of ChEMBL document CHEMBL6083290, “Proline Analogues in Drug Design: Current Trends and Future Prospects” (J Med Chem, 2024).

Data set [1] has as its target Endothelial PAS domain-containing protein 1 (Homo sapiens, UniProt Q99814). In words: Binding affinity to HIF-2alpha (unknown origin) assessed as dissociation constant.
Data set [2] has as its target T1, Replicase polyprotein 1ab (Severe acute respiratory syndrome coronavirus 2, UniProt P0DTD1).
Description: Inhibition of SARS-CoV-2 main protease extracted from Escherichia coli BL21 (DE3) cells
Data set [3] relates to SARS-CoV-2. In words: microbe, parasite or virus in culture. The following applies: Severe acute respiratory syndrome coronavirus 2, 2019-nCoV Muc-IMB-1, Vero C1008, 48 h.
Description: Antiviral activity against SARS-CoV-2 2019-nCoV Muc-IMB-1 infected in Vero E6 cells assessed as reduction in viral replication measured after 48 hrs by qRT-PCR analysis
Data set [4] has as its system MCF7. In words: Antiproliferative activity against human MCF7 cells assessed as reduction in cell viability incubated for 48 hrs by MTT assay. The following applies: MCF7, 48 h. A general note: Tetrazolium dyes change colour on reduction, which living cells bring about.
The subject of data set [5] is L-363. In words: Antiproliferative activity against human L-363 cells assessed as reduction in cell growth incubated for 72 hrs by MTT assay. The following applies: L-363, 72 h.
Data set [6] concerns the target T1, Replicase polyprotein 1ab. The source holds these as a separate data set.
Description: Inhibition of SARS-CoV-2 main protease
The nature of data set [7]: in vitro. The following applies: rat, plasma.
The target in data set [8] is Phosphatidylinositol 4,5-bisphosphate 3-kinase catalytic subunit alpha isoform (Homo sapiens, UniProt P42336). Nature of the data set: Inhibition of PI3Kalpha (unknown origin) using PIP2 as substrate measured after 30 mins by TR-FRET assay.
Data set [9] is described as follows: Metabolic stability in rat liver microsomes assessed as half life. On the technique in general: Liver microsomes are vesicles of endoplasmic reticulum, rich in cytochrome P450 enzymes.
Data set [10] can be described thus: Lipophilicity, logP of compound. The following applies: octanol/water.
The target of data set [11] is T2, Renin (Homo sapiens, UniProt P00797).
T2 sequence (P00797 whole entry): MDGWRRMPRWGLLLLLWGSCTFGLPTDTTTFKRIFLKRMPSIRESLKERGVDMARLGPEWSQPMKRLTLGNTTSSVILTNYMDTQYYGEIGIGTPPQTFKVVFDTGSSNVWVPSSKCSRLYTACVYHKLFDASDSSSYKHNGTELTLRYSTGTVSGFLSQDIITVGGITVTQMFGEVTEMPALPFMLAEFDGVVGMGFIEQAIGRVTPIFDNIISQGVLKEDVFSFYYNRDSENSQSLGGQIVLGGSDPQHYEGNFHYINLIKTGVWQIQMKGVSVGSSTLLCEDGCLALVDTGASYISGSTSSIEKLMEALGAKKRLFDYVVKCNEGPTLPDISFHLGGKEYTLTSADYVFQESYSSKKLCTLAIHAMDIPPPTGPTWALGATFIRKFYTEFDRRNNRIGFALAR
In words: Inhibition of renin (unknown origin) using Arg-Glu(EDANS)-lle-His-Pro-Phe-His-Leu-Val-lle-His-Thr-Lys(dabcyl)-Arg as substrate incubated for 10 mins by fluorescence based assay.

Data set [12] can be described thus: Inhibition of Glutamate receptor (unknown origin).

Starred links: 1 amine or outer side, 2 acyl side, 3 side chain; linkers in the order of their positions; H or OH if unused. Non-standard residues stand in square brackets, D forms with d. Residues, ends and D or L forms follow the SMILES beside them. ξ: configuration not given here. *: point of attachment. X3 = CC(C)C[C@H](N[*:1])[C@H](O)C[C@H](C(=O)[*:2])C(C)C; X2 = O=C(C1[C@@H](F)[C@@H](O)CN1[*:1])[*:2]; X1 = O=C(C1[C@H](F)[C@@H](O)CN1[*:1])[*:2]; ξPro(4R-OH) = O=C(O)C1C[C@@H](O)CN1; NHCH2(2-pyridyl) = c1ccc(CN*)nc1; αMeP = C[C@@]1(C(=O)O)CCCN1; Boc = CC(C)(C)OC(=O)*

Chain of Endothelial PAS domain-containing protein 1 (Q99814 whole entry, the tested form may be a part): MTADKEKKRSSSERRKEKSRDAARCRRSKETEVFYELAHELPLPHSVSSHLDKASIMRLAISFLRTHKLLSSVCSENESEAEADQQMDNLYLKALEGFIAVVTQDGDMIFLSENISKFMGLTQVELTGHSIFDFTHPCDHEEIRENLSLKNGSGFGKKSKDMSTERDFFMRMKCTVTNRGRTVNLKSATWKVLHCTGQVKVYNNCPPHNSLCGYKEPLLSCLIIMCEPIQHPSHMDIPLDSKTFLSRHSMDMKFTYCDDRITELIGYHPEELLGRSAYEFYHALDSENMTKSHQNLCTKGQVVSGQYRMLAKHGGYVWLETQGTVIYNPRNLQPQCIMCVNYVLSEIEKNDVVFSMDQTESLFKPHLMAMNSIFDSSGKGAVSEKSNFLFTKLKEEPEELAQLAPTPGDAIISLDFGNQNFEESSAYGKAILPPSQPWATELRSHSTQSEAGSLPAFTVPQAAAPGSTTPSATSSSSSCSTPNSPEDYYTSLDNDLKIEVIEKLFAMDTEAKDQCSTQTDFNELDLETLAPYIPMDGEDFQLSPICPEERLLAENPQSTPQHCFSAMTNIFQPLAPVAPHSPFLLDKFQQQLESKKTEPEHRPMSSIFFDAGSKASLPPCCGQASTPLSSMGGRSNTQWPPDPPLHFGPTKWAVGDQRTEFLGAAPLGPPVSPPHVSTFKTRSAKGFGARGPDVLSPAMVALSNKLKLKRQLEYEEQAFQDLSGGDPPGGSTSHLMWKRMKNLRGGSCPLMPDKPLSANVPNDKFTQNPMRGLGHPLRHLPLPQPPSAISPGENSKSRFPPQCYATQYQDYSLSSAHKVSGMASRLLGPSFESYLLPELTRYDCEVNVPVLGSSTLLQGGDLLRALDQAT
Chain of Phosphatidylinositol 4,5-bisphosphate 3-kinase catalytic subunit alpha isoform (P42336 whole entry, canonical isoform): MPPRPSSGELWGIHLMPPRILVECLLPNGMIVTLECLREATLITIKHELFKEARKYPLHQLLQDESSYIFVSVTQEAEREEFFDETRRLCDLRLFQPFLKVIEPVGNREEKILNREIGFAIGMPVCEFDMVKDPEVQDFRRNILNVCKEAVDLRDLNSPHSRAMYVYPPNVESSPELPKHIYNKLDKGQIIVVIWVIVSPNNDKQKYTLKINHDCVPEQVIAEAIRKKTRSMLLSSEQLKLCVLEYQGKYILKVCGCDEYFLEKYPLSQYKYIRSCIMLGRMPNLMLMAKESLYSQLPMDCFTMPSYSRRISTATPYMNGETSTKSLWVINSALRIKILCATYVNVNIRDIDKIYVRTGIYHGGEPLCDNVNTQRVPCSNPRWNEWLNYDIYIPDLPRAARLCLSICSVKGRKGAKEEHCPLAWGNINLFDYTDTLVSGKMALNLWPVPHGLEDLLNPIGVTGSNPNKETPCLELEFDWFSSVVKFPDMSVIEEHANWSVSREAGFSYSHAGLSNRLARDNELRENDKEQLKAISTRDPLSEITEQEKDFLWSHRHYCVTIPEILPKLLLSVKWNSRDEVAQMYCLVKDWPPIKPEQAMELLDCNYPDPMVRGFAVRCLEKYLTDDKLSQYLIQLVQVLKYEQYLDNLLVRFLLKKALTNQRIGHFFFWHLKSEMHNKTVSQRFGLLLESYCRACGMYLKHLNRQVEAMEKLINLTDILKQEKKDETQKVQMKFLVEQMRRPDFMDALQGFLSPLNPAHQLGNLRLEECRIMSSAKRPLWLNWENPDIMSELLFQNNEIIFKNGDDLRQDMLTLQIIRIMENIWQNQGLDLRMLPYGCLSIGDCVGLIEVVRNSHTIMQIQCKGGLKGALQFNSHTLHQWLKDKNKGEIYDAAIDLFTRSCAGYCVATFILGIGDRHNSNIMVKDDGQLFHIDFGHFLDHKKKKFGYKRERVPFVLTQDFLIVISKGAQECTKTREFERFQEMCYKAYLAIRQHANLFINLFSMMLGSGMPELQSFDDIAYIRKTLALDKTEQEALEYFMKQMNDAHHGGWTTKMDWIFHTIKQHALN

With `CC(=O)N[C@@H](C(=O)N1C[C@H](O)[C@@H](F)C1C(=O)NCc1ccc(-c2scnc2C)cc1)C(C)(C)C` (some centres not stated), in [1], the Kd was 0.0031 µM.
With `CC[C@H](C)[C@H](NC(=O)[C@H](CCC(=O)O)NC(=O)[C@H](Cc1ccccc1)NC(=O)[C@H](CC(=O)O)NC(=O)[C@H](CC(=O)O)NC(=O)[C@H](CC(=O)O)NC(=O)[C@H](CCSC)NC(=O)[C@@H]1CCCN1C(=O)[C@H](Cc1ccc(O)cc1)NC(=O)C1[C@@H](F)[C@@H](O)CN1C(=O)[C@H](C)NC(=O)[C@H](CC(C)C)NC(=O)[C@H](C)NC(=O)[C@H](CCC(=O)O)NC(=O)[C@@H](N)CC(=O)O)C(=O)N[C@@H](CCCNC(=N)N)C(=O)N[C@@H](CO)C(=O)N[C@@H](Cc1ccccc1)C(=O)O` (some centres not stated) (H-DEALA[X2]YPMDDDFEIRSF-OH), in [1], the Kd was 0.012 µM.
On to `C[C@@H](C(=O)N[C@H](C(=O)N1C[C@H](OC(F)F)C[C@H]1C(=O)N[C@H](C#N)C[C@@H]1CCNC1=O)C(C)(C)C)N(C)C(=O)CCCCCNc1cccc2c1C(=O)N(C1CCC(=O)NC1=O)C2=O` (some centres not stated), for which the IC50 in [2] is 0.182 µM.
With `CC[C@H](C)[C@H](NC(=O)[C@H](CCC(=O)O)NC(=O)[C@H](Cc1ccccc1)NC(=O)[C@H](CC(=O)O)NC(=O)[C@H](CC(=O)O)NC(=O)[C@H](CC(=O)O)NC(=O)[C@H](CCSC)NC(=O)[C@@H]1CCCN1C(=O)[C@H](Cc1ccc(O)cc1)NC(=O)C1[C@H](F)[C@@H](O)CN1C(=O)[C@H](C)NC(=O)[C@H](CC(C)C)NC(=O)[C@H](C)NC(=O)[C@H](CCC(=O)O)NC(=O)[C@@H](N)CC(=O)O)C(=O)N[C@@H](CCCNC(=N)N)C(=O)N[C@@H](CO)C(=O)N[C@@H](Cc1ccccc1)C(=O)O` (some centres not stated) (H-DEALA[X1]YPMDDDFEIRSF-OH), the Kd in data set [1] stood at 0.052 µM.
As for `COc1cccc2[nH]c(C(=O)N3C[C@H]4[C@@H]([C@H]3C(=O)N[C@@H](C[C@@H]3CCNC3=O)C(=O)c3nc5ccccc5s3)C4(C)C)cc12`, the EC50 in [3] was found to be 1.4 µM.
Regarding `Cc1nc(NC(=O)N2CCC[C@H]2C(N)=O)sc1-c1ccnc(C(C)(C)C(F)(F)F)c1` [ALPELISIB], the IC50 was found to be 1.2 µM in [4] and 0.17 µM in [5].
As for `CC[C@H](C)[C@H](NC(=O)[C@H](CCC(=O)O)NC(=O)[C@H](Cc1ccccc1)NC(=O)[C@H](CC(=O)O)NC(=O)[C@H](CC(=O)O)NC(=O)[C@H](CC(=O)O)NC(=O)[C@H](CCSC)NC(=O)[C@@H]1CCCN1C(=O)[C@H](Cc1ccc(O)cc1)NC(=O)C1C[C@@H](O)CN1C(=O)[C@H](C)NC(=O)[C@H](CC(C)C)NC(=O)[C@H](C)NC(=O)[C@H](CCC(=O)O)NC(=O)[C@@H](N)CC(=O)O)C(=O)N[C@@H](CCCNC(=N)N)C(=O)N[C@@H](CO)C(=O)N[C@@H](Cc1ccccc1)C(=O)O` (stereo partly drawn) (H-DEALA[ξPro(4R-OH)]YPMDDDFEIRSF-OH), the Kd in [1] is 0.011 µM.
In turn, `COc1ccc2nccc(C(=O)NCC(=O)N3CC(F)(F)C[C@H]3C#N)c2c1` returned an IC50 in data set [6] of 0.009 µM.
In data set [7], `C[C@@]1(C(=O)N[C@@H](CCC(=O)O)C(=O)O)CCCN1C(=O)CN` [TROFINETIDE] (H-Gly-[αMeP]-Glu-OH) had a half-life of 49 min.
In the case of `CC(=O)N[C@@H](C(=O)N1C[C@H](O)[C@H](F)C1C(=O)NCc1ccc(-c2scnc2C)cc1)C(C)(C)C` (some centres not stated), in data set [1], the Kd is 0.00024 µM.
On to `O=C(/C=C/c1cccc(S(=O)(=O)Nc2ccccc2)c1)NO` [BELINOSTAT], for which the results for the IC50 in [4], in data set [5] and in data set [8] were 1.2 µM, 0.17 µM and 0.0029 µM, respectively.
For the molecule `CS(=O)(=O)c1cncc(C(=O)N2[C@@H](C(=O)N[C@@H](c3cc(F)c(C(F)(F)F)cc3F)C3CC3)C[C@H]3C[C@H]32)c1` [NELUTROCTIV], the half-life in data set [9] was 30 min.
`COc1cccc2[nH]c(C(=O)N[C@@H](CC(C)C)C(=O)N[C@H](C#N)C[C@@H]3CCNC3=O)cc12` showed an EC50 in data set [3] of 1.2 µM. In other words, the single-digit micromolar range.
With `COc1ccc(/C=C/C(=O)N2C[C@@H](NC(=O)c3cccnc3)C[C@H]2C(=O)NO)cc1OC`, the concentration for half-maximal inhibition (IC50) in data set [2] was 0.009 µM. Also, the logP in data set [10] is 0.1.
`Cc1c(COc2cc(OCc3cccc(C#N)c3)c(CN3C[C@H](O)C[C@@H]3C(=O)O)cc2Cl)cccc1-c1ccc2c(c1)OCCO2` showed an IC50 in data set [6] of 0.0109 µM.
On to `CC[C@H](C)[C@H](NC(=O)[C@@H](C[C@@H](O)[C@H](CC(C)C)NC(=O)[C@H](Cc1c[nH]cn1)NC(=O)[C@H](Cc1ccccc1)NC(=O)[C@]1(C)CCCN1C(=O)OC(C)(C)C)C(C)C)C(=O)NCc1ccccn1` (Boc-[αMeP]FH[X3]I-{NHCH2(2-pyridyl)}), for which it took 0.002 µM to reach half-maximal inhibition in data set [11] (IC50).
For `CC(C)(C)[C@H](NC(=O)C(F)(F)F)C(=O)N1C[C@H]2[C@@H]([C@H]1C(=O)N[C@H](C#N)C[C@@H]1CCNC1=O)C2(C)C`, the half-maximal effective concentration (EC50) in [3] is 5.6 µM.
With `O=C(O)[C@@H]1C[C@H]2C[C@H](CN3CC(F)(F)C[C@H]3C(=O)O)CC[C@H]2CN1`, the IC50 in [12] came out at 0.045 µM.
